Reference: ChEMBL document CHEMBL3046801, “Synthesis of 2-R1-2-(4-(2-fluoroethoxy)benzamido)acetate as potential PET imaging agents” (Med Chem Res, 2012)

Assays:
Spleen [1] = test: Biodistribution in tumor bearing Mus musculus KM (mouse) spleen at 5 min by microPET imaging analysis; assay type: ADME, organism-based; settings: in vivo
Heart [2] = test: Biodistribution in tumor bearing Mus musculus KM (mouse) heart at 15 min by microPET imaging analysis; assay type: ADME, organism-based; settings: in vivo, 0.25 h
Muscle tissue [3] = test: Biodistribution in tumor bearing Mus musculus KM (mouse) muscle at 60 min by microPET imaging analysis; assay type: ADME, organism-based; settings: in vivo, 1 h
Blood [4] = test: Biodistribution in tumor bearing Mus musculus KM (mouse) blood at 5 min by microPET imaging analysis; assay type: ADME, organism-based; settings: in vivo
Muscle tissue [5] = test: Biodistribution in tumor bearing Mus musculus KM (mouse) muscle at 30 min by microPET imaging analysis; assay type: ADME, organism-based; settings: in vivo, 0.5 h
Brain [6] = test: Biodistribution in tumor bearing Mus musculus KM (mouse) brain at 60 min by microPET imaging analysis; assay type: ADME, organism-based; settings: in vivo, 1 h
Spleen [7] = test: Biodistribution in tumor bearing Mus musculus KM (mouse) spleen at 30 min by microPET imaging analysis; assay type: ADME, organism-based; settings: in vivo, 0.5 h
Muscle tissue [8] = test: Biodistribution in tumor bearing Mus musculus KM (mouse) muscle by microPET imaging analysis; assay type: ADME, organism-based; settings: in vivo, TDE = time-dependent effect
Liver [9] = test: Biodistribution in tumor bearing Mus musculus KM (mouse) liver by microPET imaging analysis; assay type: ADME, organism-based; settings: in vivo, TDE = time-dependent effect
Kidney [10] = test: Biodistribution in tumor bearing Mus musculus KM (mouse) kidney at 15 min by microPET imaging analysis; assay type: ADME, organism-based; settings: in vivo, 0.25 h
Brain [11] = test: Biodistribution in tumor bearing Mus musculus KM (mouse) brain by microPET imaging analysis; assay type: ADME, organism-based; settings: in vivo, TDE = time-dependent effect
Heart [12] = test: Biodistribution in tumor bearing Mus musculus KM (mouse) heart at 60 min by microPET imaging analysis; assay type: ADME, organism-based; settings: in vivo, 1 h
Kidney [13] = test: Biodistribution in tumor bearing Mus musculus KM (mouse) kidney at 120 min by microPET imaging analysis; assay type: ADME, organism-based; settings: in vivo, 2 h
Lung [14] = test: Biodistribution in tumor bearing Mus musculus KM (mouse) Lung at 30 min by microPET imaging analysis; assay type: ADME, organism-based; settings: in vivo, 0.5 h
Blood [15] = test: Biodistribution in tumor bearing Mus musculus KM (mouse) blood at 120 min by microPET imaging analysis; assay type: ADME, organism-based; settings: in vivo, 2 h
Blood [16] = test: Biodistribution in tumor bearing Mus musculus KM (mouse) blood at 15 min by microPET imaging analysis; assay type: ADME, organism-based; settings: in vivo, 0.25 h
Heart [17] = test: Biodistribution in tumor bearing Mus musculus KM (mouse) heart by microPET imaging analysis; assay type: ADME, organism-based; settings: in vivo, TDE = time-dependent effect
Liver [18] = test: Biodistribution in tumor bearing Mus musculus KM (mouse) liver at 5 min by microPET imaging analysis; assay type: ADME, organism-based; settings: in vivo
Muscle tissue [19] = test: Biodistribution in tumor bearing Mus musculus KM (mouse) muscle at 120 min by microPET imaging analysis; assay type: ADME, organism-based; settings: in vivo, 2 h
Heart [20] = test: Biodistribution in tumor bearing Mus musculus KM (mouse) heart at 120 min by microPET imaging analysis; assay type: ADME, organism-based; settings: in vivo, 2 h
Tumour [21] = test: Biodistribution in tumor of Mus musculus KM (mouse) by microPET imaging analysis; assay type: ADME, organism-based, Neoplasm; settings: in vivo, TDE = time-dependent effect
Tumour [22] = test: Biodistribution in Mus musculus KM (mouse) tumor at 30 min by microPET imaging analysis; assay type: ADME, organism-based, Neoplasm; settings: in vivo, 0.5 h
Spleen [23] = test: Biodistribution in tumor bearing Mus musculus KM (mouse) spleen at 15 min by microPET imaging analysis; assay type: ADME, organism-based; settings: in vivo, 0.25 h
Brain [24] = test: Biodistribution in tumor bearing Mus musculus KM (mouse) brain at 120 min by microPET imaging analysis; assay type: ADME, organism-based; settings: in vivo, 2 h
Liver [25] = test: Biodistribution in tumor bearing Mus musculus KM (mouse) liver at 60 min by microPET imaging analysis; assay type: ADME, organism-based; settings: in vivo, 1 h
Lung [26] = test: Biodistribution in tumor bearing Mus musculus KM (mouse) lung by microPET imaging analysis; assay type: ADME, organism-based; settings: in vivo, TDE = time-dependent effect
Lung [27] = test: Biodistribution in tumor bearing Mus musculus KM (mouse) Lung at 60 min by microPET imaging analysis; assay type: ADME, organism-based; settings: in vivo, 1 h
Spleen [28] = test: Biodistribution in tumor bearing Mus musculus KM (mouse) spleen at 60 min by microPET imaging analysis; assay type: ADME, organism-based; settings: in vivo, 1 h
Nucleic Acid [29] = test: Ratio of drug uptake in tumor to muscle in Mus musculus KM (mouse) at 30 min; assay type: ADME, nucleic-acid assay; settings: in vivo, 0.5 h
Lung [30] = test: Biodistribution in tumor bearing Mus musculus KM (mouse) Lung at 5 min by microPET imaging analysis; assay type: ADME, organism-based; settings: in vivo
Kidney [31] = test: Biodistribution in tumor bearing Mus musculus KM (mouse) kidney at 30 min by microPET imaging analysis; assay type: ADME, organism-based; settings: in vivo, 0.5 h
Nucleic Acid [32] = test: Ratio of drug uptake in tumor to muscle in Mus musculus KM (mouse) at 15 min; assay type: ADME, nucleic-acid assay; settings: in vivo, 0.25 h
Lung [33] = test: Biodistribution in tumor bearing Mus musculus KM (mouse) Lung at 120 min by microPET imaging analysis; assay type: ADME, organism-based; settings: in vivo, 2 h
[34] = Octanol-PBS partition coefficient of the compound at pH 7.4 by gamma counter; assay type: physicochemical; settings: read-out: log KOW
Kidney [35] = test: Biodistribution in tumor bearing Mus musculus KM (mouse) kidney at 5 min by microPET imaging analysis; assay type: ADME, organism-based; settings: in vivo
Kidney [36] = test: Biodistribution in tumor bearing Mus musculus KM (mouse) kidney by microPET imaging analysis; assay type: ADME, organism-based; settings: in vivo, TDE = time-dependent effect
Heart [37] = test: Biodistribution in tumor bearing Mus musculus KM (mouse) heart at 5 min by microPET imaging analysis; assay type: ADME, organism-based; settings: in vivo
Tumour [38] = test: Biodistribution in Mus musculus KM (mouse) tumor at 120 min by microPET imaging analysis; assay type: ADME, organism-based, Neoplasm; settings: in vivo, 2 h
Nucleic Acid [39] = test: Ratio of drug uptake in tumor to muscle in Mus musculus KM (mouse) at 60 min; assay type: ADME, nucleic-acid assay; settings: in vivo, 1 h
Muscle tissue [40] = test: Biodistribution in tumor bearing Mus musculus KM (mouse) muscle at 15 min by microPET imaging analysis; assay type: ADME, organism-based; settings: in vivo, 0.25 h
Spleen [41] = test: Biodistribution in tumor bearing Mus musculus KM (mouse) spleen at 120 min by microPET imaging analysis; assay type: ADME, organism-based; settings: in vivo, 2 h
Heart [42] = test: Biodistribution in tumor bearing Mus musculus KM (mouse) heart at 30 min by microPET imaging analysis; assay type: ADME, organism-based; settings: in vivo, 0.5 h
Brain [43] = test: Biodistribution in tumor bearing Mus musculus KM (mouse) brain at 15 min by microPET imaging analysis; assay type: ADME, organism-based; settings: in vivo, 0.25 h
Blood [44] = test: Biodistribution in tumor bearing Mus musculus KM (mouse) blood at 60 min by microPET imaging analysis; assay type: ADME, organism-based; settings: in vivo, 1 h
Tumour [45] = test: Biodistribution in Mus musculus KM (mouse) tumor at 5 min by microPET imaging analysis; assay type: ADME, organism-based, Neoplasm; settings: in vivo
Spleen [46] = test: Biodistribution in tumor bearing Mus musculus KM (mouse) spleen by microPET imaging analysis; assay type: ADME, organism-based; settings: in vivo, TDE = time-dependent effect
Liver [47] = test: Biodistribution in tumor bearing Mus musculus KM (mouse) liver at 120 min by microPET imaging analysis; assay type: ADME, organism-based; settings: in vivo, 2 h
Brain [48] = test: Biodistribution in tumor bearing Mus musculus KM (mouse) brain at 5 min by microPET imaging analysis; assay type: ADME, organism-based; settings: in vivo
Kidney [49] = test: Biodistribution in tumor bearing Mus musculus KM (mouse) kidney at 60 min by microPET imaging analysis; assay type: ADME, organism-based; settings: in vivo, 1 h
Tumour [50] = test: Biodistribution in Mus musculus KM (mouse) tumor at 15 min by microPET imaging analysis; assay type: ADME, organism-based, Neoplasm; settings: in vivo, 0.25 h
Liver [51] = test: Biodistribution in tumor bearing Mus musculus KM (mouse) liver at 30 min by microPET imaging analysis; assay type: ADME, organism-based; settings: in vivo, 0.5 h
Lung [52] = test: Biodistribution in tumor bearing Mus musculus KM (mouse) Lung at 15 min by microPET imaging analysis; assay type: ADME, organism-based; settings: in vivo, 0.25 h
Blood [53] = test: Biodistribution in tumor bearing Mus musculus KM (mouse) blood at 30 min by microPET imaging analysis; assay type: ADME, organism-based; settings: in vivo, 0.5 h
Blood [54] = test: Biodistribution in tumor bearing Mus musculus KM (mouse) blood by microPET imaging analysis; assay type: ADME, organism-based; settings: in vivo, TDE = time-dependent effect
Brain [55] = test: Biodistribution in tumor bearing Mus musculus KM (mouse) brain at 30 min by microPET imaging analysis; assay type: ADME, organism-based; settings: in vivo, 0.5 h
Tumour [56] = test: Biodistribution in Mus musculus KM (mouse) tumor at 60 min by microPET imaging analysis; assay type: ADME, organism-based, Neoplasm; settings: in vivo, 1 h
Liver [57] = test: Biodistribution in tumor bearing Mus musculus KM (mouse) liver at 15 min by microPET imaging analysis; assay type: ADME, organism-based; settings: in vivo, 0.25 h
Muscle tissue [58] = test: Biodistribution in tumor bearing Mus musculus KM (mouse) muscle at 5 min by microPET imaging analysis; assay type: ADME, organism-based; settings: in vivo
Nucleic Acid [59] = test: Ratio of drug uptake in tumor to muscle in Mus musculus KM (mouse) at 120 min; assay type: ADME; settings: in vivo, 2 h

## O=C(O)CNC(=O)c1ccc(OCC[18F])cc1 [[18F]FEBA hydrolytic acid]
Spleen [1]
  Drug uptake: 1.12 % ID/g
Heart [2]
  Drug uptake: 0.75 % ID/g
Muscle tissue [3]
  Drug uptake: 0.15 % ID/g
Blood [4]
  Drug uptake: 4.57 % ID/g
Muscle tissue [5]
  Drug uptake: 0.47 % ID/g
Brain [6]
  Drug uptake: 0.06 % ID/g
Spleen [7]
  Drug uptake: 0.22 % ID/g
Muscle tissue [8]
  Drug uptake: tde
Liver [9]
  Drug uptake: tde
Kidney [10]
  Drug uptake: 5.15 % ID/g
Brain [11]
  Drug uptake: tde
Heart [12]
  Drug uptake: 0.22 % ID/g
Kidney [13]
  Drug uptake: 0.32 % ID/g
Lung [14]
  Drug uptake: 0.37 % ID/g
Blood [15]
  Drug uptake: 0.3 % ID/g
Blood [16]
  Drug uptake: 1.45 % ID/g
Heart [17]
  Drug uptake: tde
Liver [18]
  Drug uptake: 2.75 % ID/g
Muscle tissue [19]
  Drug uptake: 0.14 % ID/g
Heart [20]
  Drug uptake: 0.25 % ID/g
Tumour [21]
  Drug uptake: tde
Tumour [22]
  Drug uptake: 0.47 % ID/g
Spleen [23]
  Drug uptake: 0.48 % ID/g
Brain [24]
  Drug uptake: 0.13 % ID/g
Liver [25]
  Drug uptake: 0.25 % ID/g
Lung [26]
  Drug uptake: tde
Lung [27]
  Drug uptake: 0.18 % ID/g
Spleen [28]
  Drug uptake: 0.21 % ID/g
Nucleic Acid [29]
  Ratio: 0.99
Lung [30]
  Drug uptake: 3.37 % ID/g
Kidney [31]
  Drug uptake: 1.17 % ID/g
Nucleic Acid [32]
  Ratio: 1.09
Lung [33]
  Drug uptake: 0.2 % ID/g
[34]
  logD: -1.55
Kidney [35]
  Drug uptake: 17.9 % ID/g
Kidney [36]
  Drug uptake: tde
Heart [37]
  Drug uptake: 2.24 % ID/g
Tumour [38]
  Drug uptake: 0.36 % ID/g
Nucleic Acid [39]
  Ratio: 1.93
Muscle tissue [40]
  Drug uptake: 0.82 % ID/g
Spleen [41]
  Drug uptake: 0.2 % ID/g
Heart [42]
  Drug uptake: 0.28 % ID/g
Brain [43]
  Drug uptake: 0.23 % ID/g
Blood [44]
  Drug uptake: 0.18 % ID/g
Tumour [45]
  Drug uptake: 1.72 % ID/g
Spleen [46]
  Drug uptake: tde
Liver [47]
  Drug uptake: 0.37 % ID/g
Brain [48]
  Drug uptake: 0.34 % ID/g
Kidney [49]
  Drug uptake: 0.46 % ID/g
Tumour [50]
  Drug uptake: 0.89 % ID/g
Liver [51]
  Drug uptake: 0.38 % ID/g
Lung [52]
  Drug uptake: 1.11 % ID/g
Blood [53]
  Drug uptake: 0.39 % ID/g
Blood [54]
  Drug uptake: tde
Brain [55]
  Drug uptake: 0.12 % ID/g
Tumour [56]
  Drug uptake: 0.29 % ID/g
Liver [57]
  Drug uptake: 1.08 % ID/g
Muscle tissue [58]
  Drug uptake: 1.35 % ID/g
Nucleic Acid [59]
  Ratio: 2.57
